The target of the test is T1, Orexin receptor type 2 (Homo sapiens, UniProt O43614).
T1 sequence (O43614 whole entry): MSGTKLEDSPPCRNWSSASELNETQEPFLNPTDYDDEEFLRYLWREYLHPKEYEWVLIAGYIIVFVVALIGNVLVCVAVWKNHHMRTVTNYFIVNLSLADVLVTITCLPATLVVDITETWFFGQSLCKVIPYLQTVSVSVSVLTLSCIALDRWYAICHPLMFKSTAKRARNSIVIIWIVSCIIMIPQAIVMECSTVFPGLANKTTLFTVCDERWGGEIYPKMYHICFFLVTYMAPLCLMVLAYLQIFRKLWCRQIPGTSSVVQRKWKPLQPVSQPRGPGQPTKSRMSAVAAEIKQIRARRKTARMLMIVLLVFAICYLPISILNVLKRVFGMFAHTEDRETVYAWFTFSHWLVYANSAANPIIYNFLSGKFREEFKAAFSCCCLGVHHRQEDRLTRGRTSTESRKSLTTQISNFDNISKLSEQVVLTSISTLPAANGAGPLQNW
As to the kind of experiment: Agonist activity against human orexin 2 receptor; EC50; nM. In kind it is functional.
As usually defined, the EC50 is the midpoint of the concentration-response curve. The compound `CC[C@H](C)[C@H](NC(=O)[C@H](CC(C)C)NC(=O)[C@@H](NC(=O)[C@@H](N)CCSC)[C@@H](C)O)C(=O)NCC(=O)N[C@@H](C)C(=O)N[C@H](C)C(=O)N[C@@H](Cc1cnc[nH]1)C(=O)N[C@@H](CC(N)=O)C(=O)NCC(=O)N[C@@H](CO)C(=O)N[C@@H](C)C(=O)N[C@@H](CCC(N)=O)C(=O)N[C@@H](CC(C)C)C(=O)N[C@@H](CC(C)C)C(=O)N[C@@H](CCCN=C(N)N)C(=O)N[C@@H](CCC(N)=O)C(=O)N[C@@H](CC(C)C)C(=O)N[C@@H](CCCN=C(N)N)C(=O)NCC(=O)N[C@@H](CCC(N)=O)C(=O)N[C@@H](CC(C)C)C(=O)NCC(=O)N1CCC[C@H]1C(=O)N1CCC[C@H]1C(=O)NCC(=O)N[C@@H](CO)C(=O)N[C@@H](CCCN=C(N)N)C(N)=O` registered a half-maximal effective concentration (EC50) of 2.6 nM.

`CC[C@H](C)[C@H](NC(=O)[C@H](CC(C)C)NC(=O)[C@@H](NC(=O)[C@@H](N)CCSC)[C@@H](C)O)C(=O)NCC(=O)N[C@H](C)C(=O)N[C@@H](C)C(=O)N[C@@H](Cc1c[nH]cn1)C(=O)N[C@@H](CC(N)=O)C(=O)NCC(=O)N[C@@H](CO)C(=O)N[C@@H](C)C(=O)N[C@@H](CCC(N)=O)C(=O)N[C@@H](CC(C)C)C(=O)N[C@@H](CC(C)C)C(=O)N[C@@H](CCCN=C(N)N)C(=O)N[C@@H](CCC(N)=O)C(=O)N[C@@H](CC(C)C)C(=O)N[C@@H](CCCN=C(N)N)C(=O)NCC(=O)N[C@@H](CCC(N)=O)C(=O)N[C@@H](CC(C)C)C(=O)NCC(=O)N1CCC[C@H]1C(=O)N1CCC[C@H]1C(=O)NCC(=O)N[C@@H](CO)C(=O)N[C@@H](CCCN=C(N)N)C(N)=O` displayed an EC50 of 14 nM.

For the compound H-MTLIGAAHNGSAQLLRQSRGQLGPPGSR-NH2, a half-maximal effect (EC50) was put at 1.2 nM.

As for `CC[C@H](C)[C@H](NC(=O)[C@H](CC(C)C)NC(=O)[C@@H](NC(=O)[C@@H](N)CCSC)[C@@H](C)O)C(=O)NCC(=O)N[C@@H](C)C(=O)N[C@@H](C)C(=O)N[C@@H](Cc1c[nH]cn1)C(=O)N[C@@H](CC(N)=O)C(=O)NCC(=O)N[C@@H](CO)C(=O)N[C@@H](C)C(=O)N[C@@H](CCC(N)=O)C(=O)N[C@@H](CC(C)C)C(=O)N[C@@H](CC(C)C)C(=O)N[C@@H](CCCN=C(N)N)C(=O)N[C@@H](CCC(N)=O)C(=O)N[C@@H](CC(C)C)C(=O)N[C@@H](CCCN=C(N)N)C(=O)NCC(=O)N[C@@H](CCC(N)=O)C(=O)N[C@@H](CC(C)C)C(=O)N[C@@H](C)C(=O)N1CCC[C@H]1C(=O)N1CCC[C@H]1C(=O)NCC(=O)N[C@@H](CO)C(=O)N[C@@H](CCCN=C(N)N)C(N)=O`, the half-maximal effective concentration (EC50) turned out to be 0.12 nM.

With `CC[C@H](C)[C@H](NC(=O)[C@H](CC(C)C)NC(=O)[C@@H](NC(=O)[C@@H](N)CCSC)[C@@H](C)O)C(=O)NCC(=O)N[C@@H](C)C(=O)N[C@@H](C)C(=O)N[C@@H](Cc1c[nH]cn1)C(=O)N[C@@H](CC(N)=O)C(=O)NCC(=O)N[C@@H](CO)C(=O)N[C@@H](C)C(=O)N[C@H](CCC(N)=O)C(=O)N[C@@H](CC(C)C)C(=O)N[C@@H](CC(C)C)C(=O)N[C@@H](CCCN=C(N)N)C(=O)N[C@@H](CCC(N)=O)C(=O)N[C@@H](CC(C)C)C(=O)N[C@@H](CCCN=C(N)N)C(=O)NCC(=O)N[C@@H](CCC(N)=O)C(=O)N[C@@H](CC(C)C)C(=O)NCC(=O)N1CCC[C@H]1C(=O)N1CCC[C@H]1C(=O)NCC(=O)N[C@@H](CO)C(=O)N[C@@H](CCCN=C(N)N)C(N)=O`, the concentration giving a half-maximal response (EC50) was 0.41 nM.

Compound `CC[C@H](C)[C@@H](NC(=O)[C@H](CC(C)C)NC(=O)[C@@H](NC(=O)[C@@H](N)CCSC)[C@@H](C)O)C(=O)NCC(=O)N[C@@H](C)C(=O)N[C@@H](C)C(=O)N[C@@H](Cc1c[nH]cn1)C(=O)N[C@@H](CC(N)=O)C(=O)NCC(=O)N[C@@H](CO)C(=O)N[C@@H](C)C(=O)N[C@@H](CCC(N)=O)C(=O)N[C@@H](CC(C)C)C(=O)N[C@@H](CC(C)C)C(=O)N[C@@H](CCCN=C(N)N)C(=O)N[C@@H](CCC(N)=O)C(=O)N[C@@H](CC(C)C)C(=O)N[C@@H](CCCN=C(N)N)C(=O)NCC(=O)N[C@@H](CCC(N)=O)C(=O)N[C@@H](CC(C)C)C(=O)NCC(=O)N1CCC[C@H]1C(=O)N1CCC[C@H]1C(=O)NCC(=O)N[C@@H](CO)C(=O)N[C@@H](CCCN=C(N)N)C(N)=O` had an EC50 of over 1400 nM.

In turn, H-MTAIGAAHNGSAQLLRQLRGQLGPPGSR-NH2 had a concentration for a half-maximal effect (EC50) of 140 nM.

In the case of H-MTLIGAAHNGSAQLLRQLRGQLGPAGSR-NH2, it took 0.23 nM to reach a half-maximal effect (EC50).

H-MTLIGAAHNGSAQLLAQLRGQLGPPGSR-NH2 registered an EC50 of 0.13 nM.

`CC[C@H](C)[C@H](NC(=O)[C@H](CC(C)C)NC(=O)[C@@H](NC(=O)[C@@H](N)CCSC)[C@@H](C)O)C(=O)NCC(=O)N[C@@H](C)C(=O)N[C@@H](C)C(=O)N[C@@H](Cc1cnc[nH]1)C(=O)N[C@@H](CC(N)=O)C(=O)NCC(=O)N[C@@H](CO)C(=O)N[C@H](C)C(=O)N[C@@H](CCC(N)=O)C(=O)N[C@@H](CC(C)C)C(=O)N[C@@H](CC(C)C)C(=O)N[C@@H](CCCN=C(N)N)C(=O)N[C@@H](CCC(N)=O)C(=O)N[C@@H](CC(C)C)C(=O)N[C@@H](CCCN=C(N)N)C(=O)NCC(=O)N[C@@H](CCC(N)=O)C(=O)N[C@@H](CC(C)C)C(=O)NCC(=O)N1CCC[C@H]1C(=O)N1CCC[C@H]1C(=O)NCC(=O)N[C@@H](CO)C(=O)N[C@@H](CCCN=C(N)N)C(N)=O` gave a concentration giving a half-maximal response (EC50) of 0.26 nM.

Compound `CC[C@H](C)[C@H](NC(=O)[C@H](CC(C)C)NC(=O)[C@@H](NC(=O)[C@@H](N)CCSC)[C@@H](C)O)C(=O)NCC(=O)N[C@@H](C)C(=O)N[C@@H](C)C(=O)N[C@@H](Cc1c[nH]cn1)C(=O)N[C@@H](CC(N)=O)C(=O)NCC(=O)N[C@@H](CO)C(=O)N[C@@H](C)C(=O)N[C@@H](CCC(N)=O)C(=O)N[C@H](CC(C)C)C(=O)N[C@@H](CC(C)C)C(=O)N[C@@H](CCCN=C(N)N)C(=O)N[C@@H](CCC(N)=O)C(=O)N[C@@H](CC(C)C)C(=O)N[C@@H](CCCN=C(N)N)C(=O)NCC(=O)N[C@@H](CCC(N)=O)C(=O)N[C@@H](CC(C)C)C(=O)NCC(=O)N1CCC[C@H]1C(=O)N1CCC[C@H]1C(=O)NCC(=O)N[C@@H](CO)C(=O)N[C@@H](CCCN=C(N)N)C(N)=O` registered an EC50 of 0.052 nM.

With H-MTLIGAAHNGSGQLLRQLRGQLGPPGSR-NH2, the response was half-maximal at 0.091 nM (EC50).

As to H-ATLIGAAHNGSAQLLRQLRGQLGPPGSR-NH2, the EC50 was 15 nM.

In the case of H-MTLIGAAHNGSAQLLRQLAGQLGPPGSR-NH2, the 50% effective concentration (EC50) was determined as 0.77 nM.

The compound `CC[C@H](C)[C@H](NC(=O)[C@H](CC(C)C)NC(=O)[C@@H](NC(=O)[C@@H](N)CCSC)[C@@H](C)O)C(=O)NCC(=O)N[C@@H](C)C(=O)N[C@@H](C)C(=O)N[C@@H](Cc1c[nH]cn1)C(=O)N[C@@H](CC(N)=O)C(=O)NCC(=O)N[C@@H](CO)C(=O)N[C@@H](C)C(=O)N[C@@H](CCC(N)=O)C(=O)N[C@@H](CC(C)C)C(=O)N[C@@H](CC(C)C)C(=O)N[C@@H](CCCN=C(N)N)C(=O)N[C@@H](CCC(N)=O)C(=O)N[C@@H](CC(C)C)C(=O)N[C@@H](CCCN=C(N)N)C(=O)NCC(=O)N[C@@H](CCC(N)=O)C(=O)N[C@@H](CC(C)C)C(=O)NCC(=O)N1CCC[C@H]1C(=O)N1CCC[C@@H]1C(=O)NCC(=O)N[C@@H](CO)C(=O)N[C@@H](CCCN=C(N)N)C(N)=O` came in with a 50% effective concentration (EC50) of 0.15 nM.

`CC[C@H](C)[C@H](NC(=O)[C@H](CC(C)C)NC(=O)[C@@H](NC(=O)[C@@H](N)CCSC)[C@@H](C)O)C(=O)NCC(=O)N[C@@H](C)C(=O)N[C@@H](C)C(=O)N[C@@H](Cc1c[nH]cn1)C(=O)N[C@@H](CC(N)=O)C(=O)NCC(=O)N[C@@H](CO)C(=O)N[C@@H](C)C(=O)N[C@@H](CCC(N)=O)C(=O)N[C@@H](CC(C)C)C(=O)N[C@@H](CC(C)C)C(=O)N[C@@H](CCCN=C(N)N)C(=O)N[C@@H](CCC(N)=O)C(=O)N[C@@H](CC(C)C)C(=O)N[C@@H](CCCN=C(N)N)C(=O)NCC(=O)N[C@@H](CCC(N)=O)C(=O)N[C@H](CC(C)C)C(=O)NCC(=O)N1CCC[C@H]1C(=O)N1CCC[C@H]1C(=O)NCC(=O)N[C@@H](CO)C(=O)N[C@@H](CCCN=C(N)N)C(N)=O` returned an EC50 of 0.084 nM.

Turning to `CC[C@H](C)[C@H](NC(=O)[C@H](CC(C)C)NC(=O)[C@@H](NC(=O)[C@@H](N)CCSC)[C@@H](C)O)C(=O)NCC(=O)N[C@@H](C)C(=O)N[C@@H](C)C(=O)N[C@@H](Cc1cnc[nH]1)C(=O)N[C@@H](CC(N)=O)C(=O)NCC(=O)N[C@@H](CO)C(=O)N[C@@H](C)C(=O)N[C@@H](CCC(N)=O)C(=O)N[C@@H](CC(C)C)C(=O)N[C@@H](CC(C)C)C(=O)N[C@@H](CCCN=C(N)N)C(=O)N[C@@H](CCC(N)=O)C(=O)N[C@@H](CC(C)C)C(=O)N[C@@H](CCCN=C(N)N)C(=O)N[C@H](C)C(=O)N[C@@H](CCC(N)=O)C(=O)N[C@@H](CC(C)C)C(=O)NCC(=O)N1CCC[C@H]1C(=O)N1CCC[C@H]1C(=O)NCC(=O)N[C@@H](CO)C(=O)N[C@@H](CCCN=C(N)N)C(N)=O`, a half-maximal effect (EC50) was put at 0.13 nM.

For H-MTLIGAAHNGSAALLRQLRGQLGPPGSR-NH2, the EC50 is 0.13 nM.

As to H-MTLIGAAHNGSAQALRQLRGQLGPPGSR-NH2, the EC50 was determined as 2.2 nM.

`CC[C@H](C)[C@H](NC(=O)[C@H](CC(C)C)NC(=O)[C@@H](NC(=O)[C@@H](N)CCSC)[C@@H](C)O)C(=O)NCC(=O)N[C@@H](C)C(=O)N[C@@H](C)C(=O)N[C@@H](Cc1c[nH]cn1)C(=O)N[C@@H](CC(N)=O)C(=O)NCC(=O)N[C@@H](CO)C(=O)N[C@@H](C)C(=O)N[C@@H](CCC(N)=O)C(=O)N[C@@H](CC(C)C)C(=O)N[C@@H](CC(C)C)C(=O)N[C@@H](CCCN=C(N)N)C(=O)N[C@@H](CCC(N)=O)C(=O)N[C@@H](CC(C)C)C(=O)N[C@@H](CCCN=C(N)N)C(=O)NCC(=O)N[C@@H](CCC(N)=O)C(=O)N[C@@H](CC(C)C)C(=O)NCC(=O)N1CCC[C@H]1C(=O)N1CCC[C@H]1C(=O)N[C@@H](C)C(=O)N[C@@H](CO)C(=O)N[C@@H](CCCN=C(N)N)C(N)=O` came in with an EC50 of 0.18 nM.
